Assay [1] deals with T1, EcR-Usp complexes (Drosophila melanogaster, UniProt P34021).
T1 construct: An immunoreactive polypeptide corresponding to the full EcR (100 kDa) was detected; ubiquitin (N, cleaved yes); made in house; host or cells: Saccharomyces cerevisiae strain BJ2168 (plasmids YEpEcR and YEpcUSP); unpurified cytosolic extract
T1 sequence (P34021 1-878): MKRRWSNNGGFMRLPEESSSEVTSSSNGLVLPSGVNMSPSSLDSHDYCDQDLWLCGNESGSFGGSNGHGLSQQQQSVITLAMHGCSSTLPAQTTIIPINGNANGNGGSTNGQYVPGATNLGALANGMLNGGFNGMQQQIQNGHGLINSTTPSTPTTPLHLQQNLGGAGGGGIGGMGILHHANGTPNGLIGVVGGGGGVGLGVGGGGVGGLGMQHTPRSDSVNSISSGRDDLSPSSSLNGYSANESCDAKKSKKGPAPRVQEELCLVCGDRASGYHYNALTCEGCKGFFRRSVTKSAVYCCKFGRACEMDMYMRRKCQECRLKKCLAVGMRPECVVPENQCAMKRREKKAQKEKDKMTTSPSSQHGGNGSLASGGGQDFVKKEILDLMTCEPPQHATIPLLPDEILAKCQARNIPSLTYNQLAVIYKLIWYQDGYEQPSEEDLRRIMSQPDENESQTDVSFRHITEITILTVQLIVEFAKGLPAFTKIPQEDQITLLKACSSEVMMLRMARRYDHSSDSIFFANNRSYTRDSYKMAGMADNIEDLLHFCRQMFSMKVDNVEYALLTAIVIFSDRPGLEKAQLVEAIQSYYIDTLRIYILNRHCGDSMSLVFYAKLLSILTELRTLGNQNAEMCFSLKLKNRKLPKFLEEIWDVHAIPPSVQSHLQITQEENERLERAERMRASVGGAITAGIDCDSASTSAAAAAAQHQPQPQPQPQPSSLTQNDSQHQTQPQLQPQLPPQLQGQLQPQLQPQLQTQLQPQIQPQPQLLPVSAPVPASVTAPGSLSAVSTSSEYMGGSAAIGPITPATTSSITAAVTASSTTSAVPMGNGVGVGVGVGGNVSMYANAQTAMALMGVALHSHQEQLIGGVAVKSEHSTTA
T1 sequence (P20153 1-508 partner): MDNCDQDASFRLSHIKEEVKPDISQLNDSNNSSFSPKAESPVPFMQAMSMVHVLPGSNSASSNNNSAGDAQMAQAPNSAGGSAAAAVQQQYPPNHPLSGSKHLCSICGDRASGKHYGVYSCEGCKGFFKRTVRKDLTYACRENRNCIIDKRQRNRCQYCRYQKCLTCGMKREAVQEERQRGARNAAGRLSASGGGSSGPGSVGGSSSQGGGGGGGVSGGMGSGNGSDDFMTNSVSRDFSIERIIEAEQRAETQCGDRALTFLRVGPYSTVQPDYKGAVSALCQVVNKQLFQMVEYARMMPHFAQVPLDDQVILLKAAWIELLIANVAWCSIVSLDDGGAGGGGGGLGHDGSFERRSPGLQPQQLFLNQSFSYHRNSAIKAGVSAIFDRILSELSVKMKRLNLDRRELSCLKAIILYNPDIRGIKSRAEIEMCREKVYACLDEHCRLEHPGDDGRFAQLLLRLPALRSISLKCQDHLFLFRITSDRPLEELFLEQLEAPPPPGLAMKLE
The experiment in a line: Competitive displacement of 3H-Ponasterone A binding to extract of yeast co-expressing EcR and Usp. The note with it: unlabelled ligand, FIG. 4, read-out: IC50 for displacing 3H-Ponasterone binding. As to the method:
(§1) Overnight cultures of yeast strains expressing EcR, Usp, EcR+Usp, and EcR+RxR were inoculated into 1 liter of selective medium and incubated for 16 h at 30° C. In strains expressing Usp, cupric sulfate was added to a final concentration of 100 μM and the culture incubated an additional 4 h at 30° C. The cells were harvested by centrifugation and washed twice in cold TEDG buffer (10 mM Tris-HCl, pH 8.0, 0.1 mM EDTA, 2 mM dithiothreitol, 10% glycerol). The cell pellet was then resuspended in TEDG buffer containing 0.4M NaCl, and vortexed with glass beads in ten 30-second bursts. The resulting homogenate is centrifuged at 1000×g for 10 min, after which the supernatant is centrifuged at 100,000×g for 30 min. The final supernatant is collected, diluted to 12.5 mg/ml protein with TEDG buffer, and stored in aliquots at −80° C.
(§2) The following components were added to each reaction mixture:
(§3) (i) 40 μl yeast extract (12.5 mg/ml protein);
(ii) 20 μl ^3H-Ponasterone A (New England Nuclear, 195 Ci/mmol; 20 μl contains 100,000 cpm and a final concentration of 2.5 nM in the reaction mixture);
(iii) 120 μl TEDG buffer containing the following protease inhibitors: PMSF (Sigma Chemical Co.), 0.15 mg/ml; leupeptin (Bachem), 0.04 mg/ml; chymostatin (Bachem), 0.03 mg/ml; and pepstatin (Sigma), 0.01 mg/ml; and
(iv) 20 μl test sample, 25 μM Muristerone A, or control diluent.
The reactions were incubated for 1 h at room temperature or at least 12 h at 4° C. Protein-bound and -free radioactivity were separated by hydroxylapatite chromatography or by filtration, the individual samples suspended in scintillation fluid and the radioactivity determined by scintillation counting.
Specificity of hormone binding to the yeast extract was measured by testing the ability of four known (unlabelled) EcR ligands to displace 3H-Ponasterone binding.
The methods described in Example 2 above were used to test a collection of natural products for EcR binding activity (FIG. 7). The products were tested at 1 and 10 μg/ml. Of 92 compounds tested, one (present in well H8) displaced 62% of ^3H-Ponasterone A binding activity at 10 μg/ml.
A chemical library containing 6592 samples was also screened using the methods described above. Each sample was present at 10 μg/ml. Compounds that displaced at least 75% of the radiolabel were scored as positives. These compounds were then used to generate competitive binding curves as described above.
Background: Loss of bound radioactivity is the signal in a displacement assay; it reports binding, not function.

For assay [2] the following is noted: cited from earlier work.
For assay [3] the following is noted: cited from earlier work. This is another data set of the same source.
The target in assay [4] is T1, EcR-Usp complexes. The experiment in a line: Saturation and Scatchard analysis of 3H-Ponasterone A binding to extract of yeast co-expressing EcR and Usp. The settings on record: extract from yeast strain co-expressing EcR and Usp. On the procedure: as §1, §2, §3
(ii) 20 μl ^3H-Ponasterone A (New England Nuclear, 195 Ci/mmol; 20 μl contains 100,000 cpm and a final concentration of 2.5 nM in the reaction mixture); […]
The reactions were incubated for 1 h at room temperature or at least 12 h at 4° C. Protein-bound and -free radioactivity were separated by hydroxylapatite chromatography or by filtration, the individual samples suspended in scintillation fluid and the radioactivity determined by scintillation counting. […]

The text below walks through data of patent US20020164637A1, “SCREEN FOR ECDYSONE RECEPTOR LIGANDS” (priority 1996, published 2002).

What is called IC50 is the point on the concentration scale where inhibition reaches its midpoint. Broadly, the Kd is the constant that tells how readily two partners part at equilibrium. Read a low Kd as tighter binding.

For 20-hydroxyecdysone, the IC50 on EcR-Usp complexes [1] is 0.5 µM.

With `CC(C)(C)N(NC(=O)c1ccccc1)C(=O)c1ccccc1` [RH5849], the “fold less active in binding assays compared with 20-hydroxyecdysone” value in assay [2] was “at least 30 fold”. Also, the IC50 on EcR-Usp complexes [1] was 12 µM. Further, the “fold less active in bioassays compared with 20-hydroxyecdysone” value in assay [3] was “at least 100 fold”.

As to `CC(C)CC[C@@H](O)[C@](C)(O)[C@H]1CC[C@@]2(O)C3=CC(=O)[C@]4(O)C[C@@H](O)[C@@H](O)C[C@]4(C)[C@H]3[C@H](O)C[C@]12C` [muristerone A], on EcR-Usp complexes [1], the IC50 is 0.015 µM.

For `CC(C)CC[C@@H](O)[C@](C)(O)[C@H]1CC[C@@]2(O)C3=CC(=O)[C@@H]4C[C@@H](O)[C@@H](O)C[C@]4(C)[C@H]3CC[C@]12C` [ponasterone A], the IC50 on EcR-Usp complexes [1] stood at 0.002 µM.

^3H-Ponasterone A had a Kd at EcR-Usp complexes [4] of 0.0018 µM.
